Test results reported in the supplement of paper PMC10307832.

What was measured:
Test in all cases: relative viability (nuclei count vs DMSO), 5 days (fraction); higher = more cells survive
[1] = compound: CN(c1ncccc1CNc1nc(Nc2ccc3c(c2)CC(=O)N3)ncc1C(F)(F)F)S(C)(=O)=O + CC(=O)c1c(C)c2cnc(Nc3ccc(N4CCNCC4)cn3)nc2n(C2CCCC2)c1=O [Palbociclib] (partner 0.5 µM)
How it was run: (§1)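 Lung cancer cell lines, seeded in 1536-well plates, were treated the following day by pin tool with a single drug or with five library-drug doses (not always all listed) in √10 steps on top of a fixed anchor-drug dose. Cells were fixed and nuclei stained in one step after 5 days, and nuclei were counted. Relative viability is the nuclei count for treated wells divided by that for vehicle wells, reported as medians of duplicate plates.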

[2] = compound: CN(c1ncccc1CNc1nc(Nc2ccc3c(c2)CC(=O)N3)ncc1C(F)(F)F)S(C)(=O)=O + Cc1nc(NC(=O)N2CCC[C@H]2C(N)=O)sc1-c1ccnc(C(C)(C)C(F)(F)F)c1 [Alpelisib] (partner 2 µM)
How it was run: as §1

[3] = compound: CN(c1ncccc1CNc1nc(Nc2ccc3c(c2)CC(=O)N3)ncc1C(F)(F)F)S(C)(=O)=O + Nc1nc2[nH]cc(CCc3ccc(C(=O)N[C@@H](CCC(=O)O)C(=O)O)cc3)c2c(=O)[nH]1 [Pemetrexed] (partner 0.2 µM)
How it was run: as §1

[4] = compound: CN(c1ncccc1CNc1nc(Nc2ccc3c(c2)CC(=O)N3)ncc1C(F)(F)F)S(C)(=O)=O + O=C(c1cc(Cc2n[nH]c(=O)c3ccccc23)ccc1F)N1CCN(C(=O)C2CC2)CC1 [Olaparib] (partner 8 µM)
How it was run: as §1

Cell Line	relative viability ([1]; first compound 0.01 µM)	relative viability ([1]; first compound 0.03162 µM)	relative viability ([1]; first compound 0.1 µM)	relative viability ([1]; first compound 0.3162 µM)	relative viability ([1]; first compound 1 µM)	relative viability ([2]; first compound 0.01 µM)	relative viability ([2]; first compound 0.03162 µM)	relative viability ([2]; first compound 0.1 µM)	relative viability ([2]; first compound 0.3162 µM)	relative viability ([2]; first compound 1 µM)	relative viability ([3]; first compound 0.01 µM)	relative viability ([3]; first compound 0.03162 µM)	relative viability ([3]; first compound 0.1 µM)	relative viability ([3]; first compound 0.3162 µM)	relative viability ([3]; first compound 1 µM)	relative viability ([4]; first compound 0.01 µM)	relative viability ([4]; first compound 0.03162 µM)	relative viability ([4]; first compound 0.1 µM)	relative viability ([4]; first compound 0.3162 µM)	relative viability ([4]; first compound 1 µM)
SK-LU-1	0.405	0.358	0.398	0.401	0.369	0.929	1.25	0.988	0.988	0.928	1.04	0.903	0.954	1	0.88	0.411	0.433	0.38	0.408	0.445
SK-MES-1	0.286	0.298	0.304	0.296	0.294	0.915	0.926	0.843	0.882	0.712	0.968	0.894	0.882	0.904	0.762	0.718	0.76	0.731	0.538	0.499
SW 1573	0.482	0.399	0.346	0.31	0.35	0.73	1.08	0.628	0.922	0.778	0.869	0.928	0.826	0.934	0.837	0.491	0.682	0.443	0.517	0.398
UMC-11	0.316	0.346	0.394	0.317	0.34	1	1.06	0.901	0.809	0.787	0.743	0.831	0.82	0.799	0.687	0.413	0.545	0.364	0.439	0.363
